Experiment [1] relates to 293T cells. Briefly: Western blot of 293T cells treated with inhibitors. Type of experiment: cell-based, human.
Experiment [2] concerns 293T cells. The following applies: 30 min; cited from earlier work.

As to `CCc1cncnc1N1CCN(Cc2nc3ccc(C(F)(F)F)cc3[nH]2)CC1` [PF-4708671], the “phosphorylation of AKT (pAKT)” value in the experiment with 293T cells [1] (3 and 16 h of treatment) is “no effect on the phosphorylation of AKT”. Besides, the “phosphorylation of S6” value in the experiment on 293T cells [1] (3 h time point) is “modest decrease in phosphorylation of S6”; with 293T cells [1] (16 h time point) it was “returned to near basal levels”. In addition, the S6 phosphorylation entry with 293T cells [2] is recorded as “significant reduction in S6 phosphorylation”.

Turning to `COc1ccc(-c2ccc3c(N4CCOC[C@@H]4C)nc(N4CCOC[C@@H]4C)nc3n2)cc1CO` [AZD8055], in the experiment on 293T cells [1] (3 and 16 h of treatment), the “phosphorylation of AKT (pAKT)” value was “decrease in pAKT at T308 and S473”; the “phosphorylation of S6 (pS6 levels)” value was “significant decrease in pS6 levels at both the S235 and S240 sites”.

The values above are taken from publication PMC4289024 (Journal of Medicinal Chemistry, 2014).
